The results in this text go back to ChEMBL document CHEMBL4665836, “Overcoming β-Lactam resistance in Pseudomonas aeruginosa using non-canonical tobramycin-based antibiotic adjuvants” (2020).

What all share (assay type): functional
In assay [1] the test system is Pseudomonas aeruginosa. The assay can be described thus: Potentiation of imipenem-induced antibacterial activity against carbapenem-resistant Pseudomonas aeruginosa 109084 clinical isolate assessed as fold reduction in imipenem MIC at 8 uM in presence of beta-lactamase inhibitor, rele-bactam.
The test system of assay [2] is Pseudomonas aeruginosa. The assay can be described thus: Potentiation of aztreonam-induced antibacterial activity against carbapenem-resistant Pseudomonas aeruginosa 108590 clinical isolate assessed as fold reduction in aztreonam MIC at 8 uM in presence of beta-lactamase inhibitor, avi-bactam.
Assay [3] has as its system Pseudomonas aeruginosa. The assay can be described thus: Potentiation of ceftazidime-induced antibacterial activity against carbapenem-resistant Pseudomonas aeruginosa 88949 clinical isolate assessed as fold reduction in ceftazidime MIC at 8 uM in presence of beta-lactamase inhibitor, avi-bactam.
Assay [4] has as its system Pseudomonas aeruginosa. As to the kind of experiment: Potentiation of ceftazidime-induced antibacterial activity against carbapenem-resistant Pseudomonas aeruginosa 108590 clinical isolate assessed as fold reduction in ceftazidime MIC at 8 uM in presence of beta-lactamase inhibitor, avi-bactam.
The subject of assay [5] is Pseudomonas aeruginosa. As to the kind of experiment: Potentiation of imipenem-induced antibacterial activity against carbapenem-resistant Pseudomonas aeruginosa PAO750 harboring mexAB-oprM/mexCD-oprJ/mexEF-oprN/mexJK/mexXY/opmH efflux deficient mutant assessed as imipenem MIC at 8 uM by checkerboard assay (reference value: 4 ug/ml).
The subject of assay [6] is Pseudomonas aeruginosa. As to the kind of experiment: Potentiation of imipenem-induced antibacterial activity against carbapenem-resistant Pseudomonas aeruginosa PAO200 harboring mexAB-oprM efflux deficient mutant assessed as imipenem MIC at 8 uM by checkerboard assay (reference value: 4 ug/ml).
Assay [7] has as its system Pseudomonas aeruginosa. The assay can be described thus: Potentiation of imipenem-induced antibacterial activity against carbapenem-resistant Pseudomonas aeruginosa 107092 clinical isolate assessed as imipenem MIC at 8 uM by checkerboard assay (reference value: 64 ug/ml).
For assay [8], the system named is Pseudomonas aeruginosa. The assay can be described thus: Potentiation of imipenem-induced antibacterial activity against carbapenem-resistant Pseudomonas aeruginosa 88949 clinical isolate assessed as imipenem MIC at 8 uM by checkerboard assay (reference value: 64 ug/ml).
In assay [9] the test system is Pseudomonas aeruginosa. As to the kind of experiment: Potentiation of imipenem-induced antibacterial activity against carbapenem-resistant Pseudomonas aeruginosa 86052 clinical isolate assessed as imipenem MIC at 8 uM by checkerboard assay (reference value: 32 ug/ml).
Assay [10] relates to Pseudomonas aeruginosa. As to the kind of experiment: Potentiation of imipenem-induced antibacterial activity against carbapenem-resistant Pseudomonas aeruginosa 264-104354 clinical isolate assessed as imipenem MIC at 8 uM by checkerboard assay (reference value: 16 ug/ml).
Assay [11] deals with Pseudomonas aeruginosa. The assay can be described thus: Potentiation of imipenem-induced antibacterial activity against carbapenem-resistant Pseudomonas aeruginosa 262-101856 clinical isolate assessed as imipenem MIC at 8 uM by checkerboard assay (reference value: 32 ug/ml).
For assay [12], the system named is Pseudomonas aeruginosa. The assay can be described thus: Potentiation of imipenem-induced antibacterial activity against carbapenem-resistant Pseudomonas aeruginosa 260-97103 clinical isolate assessed as imipenem MIC at 8 uM by checkerboard assay (reference value: 16 ug/ml).
Assay [13] relates to Pseudomonas aeruginosa. The assay can be described thus: Potentiation of imipenem-induced antibacterial activity against wild-type Pseudomonas aeruginosa PAO1 assessed as imipenem MIC at 8 uM by checkerboard assay (reference value: 4 ug/ml).
The test system of assay [14] is Pseudomonas aeruginosa. As to the kind of experiment: Potentiation of aztreonam-induced antibacterial activity against wild type Pseudomonas aeruginosa PAO1 assessed as fold reduction in aztreonam MIC at 8 uM.
Assay [15] deals with Pseudomonas aeruginosa. The assay can be described thus: Potentiation of imipenem-induced antibacterial activity against wild type Pseudomonas aeruginosa PAO1 assessed as fold reduction in imipenem MIC at 8 uM.

As usually defined, the MIC is the least concentration at which growth counts as inhibited. For `NC[C@H]1O[C@H](O[C@H]2[C@H](OCCCCCCCCN3CCCNCCNCCCNCC3)[C@@H](O[C@H]3O[C@H](CO)[C@@H](O)[C@H](N)[C@H]3O)[C@H](N)C[C@@H]2N)[C@H](N)C[C@@H]1O.O=C(O)C(F)(F)F.O=C(O)C(F)(F)F.O=C(O)C(F)(F)F.O=C(O)C(F)(F)F.O=C(O)C(F)(F)F.O=C(O)C(F)(F)F.O=C(O)C(F)(F)F.O=C(O)C(F)(F)F.O=C(O)C(F)(F)F`, the “fold change (FC)” value amounted to 16 with Pseudomonas aeruginosa [1]; 16 with Pseudomonas aeruginosa [2]; 16 with Pseudomonas aeruginosa [3]; 16 with Pseudomonas aeruginosa [4]; 2 in the assay on Pseudomonas aeruginosa [14]; 2 with Pseudomonas aeruginosa [15]. Further, the MIC with Pseudomonas aeruginosa [5] was 2 µg/mL; in the assay on Pseudomonas aeruginosa [6] it was 2 µg/mL; in the assay on Pseudomonas aeruginosa [7], 16 µg/mL; with Pseudomonas aeruginosa [8] it was 32 µg/mL; with Pseudomonas aeruginosa [9], 16 µg/mL; with Pseudomonas aeruginosa [10] it was 8 µg/mL. The MIC in the assay on Pseudomonas aeruginosa [11] is 16 µg/mL; with Pseudomonas aeruginosa [12], 8 µg/mL; with Pseudomonas aeruginosa [13] it was 2 µg/mL.
